Experimental data published in PubChem BioAssay (NCI).
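The compound was tested at five concentrations on cells cultured in 96-well plates, with a 48-hour exposure period. TGI marks complete inhibition of growth.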

How the values were obtained:
Experiment in all cases: DTP human tumour cell line panel, 48 h
[1] = test system: 786-0 renal
[2] = test system: SK-MEL-28 melanoma
[3] = test system: TK-10 renal
[4] = test system: U251 CNS
[5] = test system: RPMI-8226 leukemia
[6] = test system: DMS 114 small cell lung
[7] = test system: KM20L2 colon
[8] = test system: EKVX NSCLC
[9] = test system: NCI-H522 lung
[10] = test system: SF-295 CNS
[11] = test system: SF-268 CNS
[12] = test system: COLO 205 colon
[13] = test system: M14 melanoma
[14] = test system: HCT-116 colon
[15] = test system: MALME-3M melanoma
[16] = test system: OVCAR-3 ovarian
[17] = test system: SNB-78 CNS
[18] = test system: SNB-75 CNS
[19] = test system: NCI-H460 lung
[20] = test system: HT29 colon
[21] = test system: SF-539 CNS
[22] = test system: CCRF-CEM leukemia
[23] = test system: OVCAR-4 ovarian
[24] = test system: UACC-62 melanoma
[25] = test system: ACHN renal
[26] = test system: UACC-257 melanoma
[27] = test system: OVCAR-8 ovarian
[28] = test system: IGROV1 ovarian
[29] = test system: SR leukemia
[30] = test system: M19-MEL melanoma
[31] = test system: HOP-92 NSCLC
[32] = test system: A498 renal
[33] = test system: DMS 273 small cell lung
[34] = test system: HL-60(TB) leukemia
[35] = test system: SK-MEL-2 melanoma
[36] = test system: MOLT-4 leukemia
[37] = test system: HOP-18 NSCLC
[38] = test system: A549 NSCLC
[39] = test system: KM12 colon
[40] = test system: DLD-1 colon
[41] = test system: SN12C renal
[42] = test system: HCC-2998 colon
[43] = test system: LXFL 529 NSCLC
[44] = test system: SK-OV-3 ovarian
[45] = test system: XF 498 CNS
[46] = test system: K-562 leukemia
[47] = test system: SNB-19 CNS
[48] = test system: NCI-H226 lung
[49] = test system: RXF 393 renal
[50] = test system: HCT-15 colon
[51] = test system: HOP-62 NSCLC
[52] = test system: UO-31 renal
[53] = test system: LOX IMVI melanoma
[54] = test system: SW-620 colon
[55] = test system: NCI-H23 lung
[56] = test system: SK-MEL-5 melanoma
[57] = test system: OVCAR-5 ovarian
[58] = test system: RXF-631 renal
[59] = test system: CAKI-1 renal

Cc1c(-c2nnc(-c3ccc(Cl)cc3)o2)c(=O)n(-c2ccccc2)n1C
TGI [1]: > 100 µM
TGI [2]: > 100 µM
TGI [3]: > 100 µM
TGI [4]: > 100 µM
TGI [5]: > 100 µM
TGI [6]: > 100 µM
TGI [7]: > 100 µM
TGI [8]: > 100 µM
TGI [9]: > 100 µM
TGI [10]: > 100 µM
TGI [11]: > 100 µM
TGI [12]: > 100 µM
TGI [13]: > 100 µM
TGI [14]: > 100 µM
TGI [15]: > 100 µM
TGI [16]: > 100 µM
TGI [17]: > 100 µM
TGI [18]: > 100 µM
TGI [19]: > 100 µM
TGI [20]: > 100 µM
TGI [21]: 90.1 µM
TGI [22]: > 100 µM
TGI [23]: > 100 µM
TGI [24]: > 100 µM
TGI [25]: > 100 µM
TGI [26]: > 100 µM
TGI [27]: > 100 µM
TGI [28]: > 100 µM
TGI [29]: > 100 µM
TGI [30]: > 100 µM
TGI [31]: > 100 µM
TGI [32]: > 100 µM
TGI [33]: > 100 µM
TGI [34]: > 100 µM
TGI [35]: > 100 µM
TGI [36]: > 100 µM
TGI [37]: > 100 µM
TGI [38]: > 100 µM
TGI [39]: > 100 µM
TGI [40]: > 100 µM
TGI [41]: > 100 µM
TGI [42]: > 100 µM
TGI [43]: > 100 µM
TGI [44]: > 100 µM
TGI [45]: > 100 µM
TGI [46]: > 100 µM
TGI [47]: > 100 µM
TGI [48]: > 100 µM
TGI [49]: > 100 µM
TGI [50]: > 100 µM
TGI [51]: > 100 µM
TGI [52]: > 100 µM
TGI [53]: > 100 µM
TGI [54]: > 100 µM
TGI [55]: > 100 µM

CC(Oc1ccc(OCC2CCCCC2)cc1)C(N)=O (centres undefined)
TGI [1]: > 100 µM
TGI [2]: > 100 µM
TGI [3]: > 100 µM
TGI [4]: > 100 µM
TGI [6]: > 100 µM
TGI [56]: > 100 µM
TGI [9]: > 100 µM
TGI [10]: > 100 µM
TGI [11]: > 100 µM
TGI [13]: > 100 µM
TGI [14]: > 100 µM
TGI [15]: > 100 µM
TGI [16]: > 100 µM
TGI [17]: > 100 µM
TGI [18]: > 100 µM
TGI [19]: > 100 µM
TGI [20]: > 100 µM
TGI [21]: > 100 µM
TGI [22]: > 100 µM
TGI [23]: > 100 µM
TGI [24]: > 100 µM
TGI [25]: > 100 µM
TGI [26]: > 100 µM
TGI [27]: > 100 µM
TGI [30]: > 100 µM
TGI [33]: > 100 µM
TGI [34]: > 100 µM
TGI [35]: > 100 µM
TGI [36]: > 100 µM
TGI [37]: > 100 µM
TGI [38]: > 100 µM
TGI [39]: > 100 µM
TGI [40]: > 100 µM
TGI [41]: > 100 µM
TGI [43]: > 100 µM
TGI [44]: > 100 µM
TGI [45]: > 100 µM
TGI [46]: > 100 µM
TGI [48]: > 100 µM
TGI [50]: > 100 µM
TGI [52]: > 100 µM
TGI [53]: > 100 µM
TGI [54]: > 100 µM
TGI [55]: > 100 µM

CC(=O)C1=C(C)Cn2c(=O)c3ccccc3c(=O)n2C1
TGI [1]: > 100 µM
TGI [2]: > 100 µM
TGI [57]: > 100 µM
TGI [3]: > 100 µM
TGI [4]: > 100 µM
TGI [5]: > 100 µM
TGI [6]: > 100 µM
TGI [7]: > 100 µM
TGI [56]: > 100 µM
TGI [8]: > 100 µM
TGI [9]: > 100 µM
TGI [10]: > 100 µM
TGI [11]: > 100 µM
TGI [12]: > 100 µM
TGI [13]: > 100 µM
TGI [14]: > 100 µM
TGI [15]: > 100 µM
TGI [16]: > 100 µM
TGI [18]: > 100 µM
TGI [19]: > 100 µM
TGI [20]: > 100 µM
TGI [21]: > 100 µM
TGI [22]: > 100 µM
TGI [23]: > 100 µM
TGI [25]: > 100 µM
TGI [58]: > 100 µM
TGI [26]: > 100 µM
TGI [27]: > 100 µM
TGI [28]: > 100 µM
TGI [29]: > 100 µM
TGI [30]: > 100 µM
TGI [31]: > 100 µM
TGI [32]: > 100 µM
TGI [33]: > 100 µM
TGI [34]: > 100 µM
TGI [35]: > 100 µM
TGI [36]: > 100 µM
TGI [38]: > 100 µM
TGI [39]: > 100 µM
TGI [40]: > 100 µM
TGI [41]: > 100 µM
TGI [42]: > 100 µM
TGI [59]: > 100 µM
TGI [43]: > 100 µM
TGI [44]: > 100 µM
TGI [46]: > 100 µM
TGI [47]: > 100 µM
TGI [48]: > 100 µM
TGI [49]: > 100 µM
TGI [50]: > 100 µM
TGI [51]: > 100 µM
TGI [52]: > 100 µM
TGI [53]: > 100 µM
TGI [54]: > 100 µM
TGI [55]: > 100 µM
